These results are taken from paper PMC11324517 (Nature, 2024).

One data set has as its system hDAT W84C. The settings on record: W84C mutant; cited from earlier work.
In a further data set the target is ∆-hDAT (Homo sapiens, UniProt Q01959, I248Y). Particulars: ∆-hDAT, HEK293 GnTI− cells, mean ± s.d., n = 3.
The target of a further data set is full-length hDAT (Homo sapiens, UniProt Q01959). The settings on record: full-length hDAT, HEK293 GnTI− cells, mean ± s.d., n = 3.
Substrate in data set [1]: NCCc1ccc(O)c(O)c1
Nature of the data set: cells, lysate or membranes. Particulars: HEK293 GnTI− cells, Michaelis–Menten model, mean ± s.d., n = 3, pH 7.4.

As to `CCc1ccc2[nH]c3nc(SCCNS(=O)(=O)c4ccc(NC(C)=O)cc4)nnc3c2c1` [KM822], the “effect of mutation on potency of KM822” value with hDAT W84C was “increases the potency”.

On to `NCCc1ccc(O)c(O)c1` [[^3H]dopamine, dopamine], for which the “reaction rate at infinite substrate concentration (Vmax) for [3H]dopamine uptake” value at ∆-hDAT stood at 342.8 ± 11.7 fmol min^−1 per well; on full-length hDAT, 190.9 ± 10.7 fmol min^−1 per well.

B1: ∆-hDAT (Homo sapiens; I248Y) (protein)
chain: AQDRETWGKKIDFLLSVIGFAVDLANVWRFPYLCYKNGGGAFLVPYLLFMVIAGMPLFYMELALGQFNREGAAGVWKICPILKGVGFTVILISLYVGFFYNVIIAWALHYLFSSFTTELPWIHCNNSWNSPNCSDAHPGDSSGDSSGLNDTFGTTPAAEYFERGVLHLHQSHGIDDLGPPRWQLTACLVLVYVLLYFSLWKGVKTSGKVVWITATMPYVVLTALLLRGVTLPGAIDGIRAYLSVDFYRLCEASVWIDAATQVCFSLGVGFGVLIAFSSYNKFTNNCYRDAIVTTSINSLTSFSSGFVVFSFLGYMAQKHSVPIGDVAKDGPGLIFIIYPEAIATLPLSSAWAVVFFIMLLTLGIDSAMGGMESVITGLIDEFQLLHRHRELFTLFIVLATFLLSLFCVTNGGIYVFTLLDHFAAGTSILFGVLIEAIGVAWFYGVGQFSDDIQQMTGQRPSLYWRLCWKLVSPCFLLFVVVVSIVTFRPPHYGAYIFPDWANALGWVIATSSMAMVPIYAAYKFCSLPGSFREKLAYAIAPEKDRELVDRGEVRQFTLRHWLKV
With B1, the Km in data set [1] (other: ∆-hDAT) came to 0.55 ± 0.07 µM.

B2: full-length hDAT (Homo sapiens) (protein)
chain: MSKSKCSVGLMSSVVAPAKEPNAVGPKEVELILVKEQNGVQLTSSTLTNPRQSPVEAQDRETWGKKIDFLLSVIGFAVDLANVWRFPYLCYKNGGGAFLVPYLLFMVIAGMPLFYMELALGQFNREGAAGVWKICPILKGVGFTVILISLYVGFFYNVIIAWALHYLFSSFTTELPWIHCNNSWNSPNCSDAHPGDSSGDSSGLNDTFGTTPAAEYFERGVLHLHQSHGIDDLGPPRWQLTACLVLVIVLLYFSLWKGVKTSGKVVWITATMPYVVLTALLLRGVTLPGAIDGIRAYLSVDFYRLCEASVWIDAATQVCFSLGVGFGVLIAFSSYNKFTNNCYRDAIVTTSINSLTSFSSGFVVFSFLGYMAQKHSVPIGDVAKDGPGLIFIIYPEAIATLPLSSAWAVVFFIMLLTLGIDSAMGGMESVITGLIDEFQLLHRHRELFTLFIVLATFLLSLFCVTNGGIYVFTLLDHFAAGTSILFGVLIEAIGVAWFYGVGQFSDDIQQMTGQRPSLYWRLCWKLVSPCFLLFVVVVSIVTFRPPHYGAYIFPDWANALGWVIATSSMAMVPIYAAYKFCSLPGSFREKLAYAIAPEKDRELVDRGEVRQFTLRHWLKV
Regarding B2, the Km in data set [1] (other: full-length hDAT) was 0.56 ± 0.13 µM.
